The results in this text go back to patent publication US10912767B2, “Anthracycline prodrugs and methods of making and using the same” (THE REGENTS OF THE UNIVERSITY OF COLORADO, priority 2015, dated 2021).

SMILES strings stand for the structures. Read-outs that look alike come from different tables or passages of the source. Non-standard residues stand in square brackets, D forms with d. Residues, ends and D or L forms follow the SMILES beside them. *: point of attachment. X1 = COc1cc(C(C)OC(=O)N2CO[C@@H]3[C@H](C)OC(OC4CC(O)(C(=O)CO)Cc5c(O)c6c(c(O)c54)C(=O)c4c(OC)cccc4C6=O)C[C@@H]32)c([N+](=O)[O-])cc1OCC(=O)NCCOCCOCCOCCn1nnc2c1-c1ccccc1CN(C(=O)CCNC(=O)CCN1C(=O)CC(*)C1=O)c1ccccc1-2; Mpa = O=C(O)CCS

Experiment [1] in a line: Photolysis timecourses, near UV blacklight 350 nm, HPLC. Type of experiment: physicochemical. The note with it: for k in ACN: H2O, relative rate constant for photocleavage / k in PBS, relative rate constant for photocleavage: 100 μM, near UV 350 nm; for k in ACN: H2O, relative rate constant for photocleavage / k in ACN: H2O, fold over photodoxazolidine: 1:1 acetonitrile:water; for photochemical reaction, fold faster than photodoxazolidine: both solvents. From the text:
(§1) In order to investigate the photolysis of the drugs in a system amenable to cell culture use, a custom UV irradiation apparatus was constructed, consisting of 3 small blacklight fluorescent bulbs (Southern New England Ultraviolet Co., λmax=350 nm) set between two ring stands and suspended at a height of 11.5 cm. The bulbs' housing was reflective aluminum so as to direct as much UV irradiation as possible downward toward the plate. Upon installation in sterile cell culture hood, the power of the system was measured at approximately 6-7 mW using a Scientech laser power meter. Prior to experimentation, the hood and irradiation apparatus was sterilized with 254 nm germicidal UV irradiation overnight. Using this setup, 100 μM of 4,5-dimethoxy-2-nitrobenyl alcohol (DMNA), photodoxazolidine R═H, and glucose-PEG-photodoxazoldine were irradiated in individual wells of a 24-well plate. Initially, 50 μL of a DMSO stock was diluted with 950 μL of PBS and aliquots of 50 μL were removed at various times (0-180 min), mixing by pipetting each time. The timepoints were analyzed by HPLC (method 2) and plotted as fractional conversion versus time. […] Therefore, a second experiment was performed in which the PBS was replaced with 1:1 acetonitrile:water. With this system of 5% DMSO/47.5% acetonitrile/47.5% water, no visible precipitation was produced over the course of the reaction.
The measured quantum yield of 0.002 for photodoxazolidine R═H (above) was lower than expected, which raised the possibility that the presence of the anthraquinone ring complex in the prodrugs was inhibiting photocleavage by quenching the activated state. To test whether this, the irradiation kinetics of DMNA (4, 5-dimethoxy-2-nitrobenzyl alcohol) was compared against photodoxazolidine R═H, which contains the DMNA unit as the photoactivating group. Additionally, glucose-PEG-photodoxazoldine was included for comparison; a synthetic precursor to this compound, azido-PEG-photodoxazolidine, is suspected of having a quantum yield of 0.01-0.02, which is 5-10-fold larger than photodoxazolidine. Irradiation was performed in 24-well cell culture dishes using the cell culture irradiation system described above with the soft-glass high-pass filter. […] In both cases, photodoxazolidine was the slowest to produce dox from the irradiation. In line with its quantum yield, glucose-PEG-photodoxazolidine reacted 4-5-fold faster than photodoxazolidine. However, DMNA was by far the fastest to undergo photochemistry in this system, converting to product approximately 30-fold faster than photodoxazolidine.

Experiment [2] deals with MDA-MB-231 breast cancer cells. The experiment in a line: Tumor cell growth inhibition, crystal violet (Example 2). Type of experiment: cell-based, human. The conditions noted are these: Homo sapiens, read-out: IC50.
Excerpt: as §1
The ovarian carcinoma line NCl/ADR-RES (ADR) was grown in high-glucose Dulbecco's Modified Eagle Medium (DMEM) supplemented with 10% fetal bovine serum (FBS), 200 units/mL of penicillin and 200 μg/mL of streptomycin. The breast carcinoma line MDA-MB-231 was cultured in low-glucose DMEM with the same additives. Both lines were maintained in a humidified incubator with 5% CO2/95% air at 37° C. UV irradiations were performed with the apparatus described above.
Growth inhibition experiments were performed by seeding cells into 96-well plates or 24-well plates at densities of 1000-1500 cells per well or 8000 cells per well, respectively, and allowing the cells to adhere overnight. The media was then replaced with a range of aqueous concentrations of the drug in question and allowed to incubate at 37° C. with the cells for a span of time (Inc1) which ranged from 1 min to 48 hours. Irradiation was performed at room temperature with the plate's lid removed and ranged from 1 to 30 min. In some experiments, the drug solution was removed following Inc1 and irradiated in clean media or PBS. Following irradiation, the cells were placed back into the 37° C. incubator for a second period of incubation (Inc2), which varied between 1 min and 24 h, prior to replacement with fresh media. Plates which received no irradiation but identical treatment otherwise were done in parallel. The cells were then grown until the no-drug control wells reached approximately 80% confluence or 5 days, whichever was shorter. […] The cells were fixed with 5% formalin in PBS, stained with crystal violet, washed with tap water, and air-dried. The stain was resolubilized in 50% isopropyl alcohol, 50% H2O containing 2% (w/v) SDS. The staining density was read on a multiwell plate reader at 588-600 nm. Percentage cell density was calculated relative to the irradiated no-drug control wells, plotted as a function of drug concentration, and fit using non-linear least squared analysis with a variable-slope dose response model in GraphPad Prism 5.0 software.
Although the introduction of a long-pass glass filter between the light source and the plate alleviated this effect to a small extent, a maximum irradiation time of 10 min was settled upon. […] Since a media change at that point would remove the cells as well, the re-adherence of the cell population was accomplished by the addition of a large volume (200 μL) of complete media following Inc2, and overnight incubation. Then, a full media change was done to remove the drug. […]

Experiment [3] concerns MDA-MB-231 human breast cancer cells. As to the kind of experiment: cells. It counts as cell-based. The protocol: The breast carcinoma line MDA-MB-231 was cultured in Minimum Essential Media (MEM) supplemented with 10% of fetal bovine serum (FBS), 100 units/mL of penicillin and 100 μg/mL of streptomycin, and 1 mM of sodium pyruvate. The cells were incubated at 37° C. in an atmosphere of 95% air and 5% CO2.
The cells were seeded to 96-well plates at a density of 1000 cells/well and allowed to adhere overnight. The prodrugs with various concentrations in MEM were added and the cells were incubated at 37° C. for 24 h. After the media was removed, the cells were washed with PBS two times. The cells in PBS (50 μL) were irradiated for 15 min, followed by incubating at room temperature for 30 min. The PBS was replaced with fresh media and the cells were grown until the no-drug control reached 80% confluency, or 5 days. Cell density was measured by crystal violet staining.
The membrane permeability of the photoactivated prodrugs and their cellular uptake by MDA-MB-231 human breast cancer cells were each monitored by fluorescence microscopy. After the cells were grown with the prodrugs for 24 h, they were washed with PBS two times to remove the prodrugs that remained outside of the cells. The cellular uptake of 10 μM glucose-photodoxazolidine and glucose-PEG-photodoxazolidine was monitored with the fluorescence of the anthraquinone fluorophore. The prodrugs were then activated inside of the cells by black lamp UV irradiation (maximum intensity at 350 nm) for 15 min. […] This drastic change of cytotoxicity presumably arises from membrane permeability of MARCKS-ED peptide and possibly some phototoxicity from longer irradiation time.

`COc1cc(CO)c([N+](=O)[O-])cc1OC` [DMNA, 4,5-dimethoxy-2-nitrobenzylalcohol, reference compound]: in experiment [1], the “k in ACN: H2O, relative rate constant for photocleavage” value was 0.21 min⁻¹; the “k in PBS, relative rate constant for photocleavage” value was determined as 0.081 min⁻¹; the “k in ACN: H2O, fold over photodoxazolidine” value is reported as “(30)”; the “k in PBS, fold over photodoxazolidine” value is “(31)”. Besides, the “photochemical reaction, fold faster than photodoxazolidine” value in experiment [1] is “approximately 30 fold”.

Consider `COc1cc(C(C)OC(=O)N2COC3C(C)OC(OC4CC(O)(C(=O)CO)Cc5c(O)c6c(c(O)c54)C(=O)c4c(OC)cccc4C6=O)CC32)c([N+](=O)[O-])cc1OCC(=O)NCCOCCOCCOCCn1cc(CCC(=O)NC2C(O)OC(CO)C(O)C2O)nn1` (centres unmarked) [Glucose-PEG-photodoxazolidine], for which the IC50 (commonly the concentration at which inhibition is half-maximal) in experiment [2] (10 min, MDA-MB-231, +UV 10 min, near UV 350 nm) is 27 ± 2 nM. The IC50 in experiment [2] (MDA-MB-231, prodrug alone, no UV) is > 10000 nM. Also, in experiment [1], the “k in ACN: H2O, relative rate constant for photocleavage” value came to 0.036 min⁻¹; the “k in PBS, relative rate constant for photocleavage” value was found to be 0.011 min⁻¹; the “k in ACN: H2O, fold over photodoxazolidine” value is reported as “(5.2)”; the “k in PBS, fold over photodoxazolidine” value was “(4.2)”. Besides, the “photochemical reaction, fold faster than photodoxazolidine” value in experiment [1] was 4-5 fold. For the same molecule, the IC50 in experiment [3] (Homo sapiens, MDA-MB-231, light +, 24 h incubation, 15 min UV, read-out: IC50) turned out to be 750 nM. Also, the IC50 in experiment [3] (Homo sapiens, MDA-MB-231, light −, 24 h incubation, read-out: IC50) worked out at 2400 nM.

For the molecule `COc1cc(C(C)OC(=O)N2COC3C(C)OC(OC4CC(O)(C(=O)CO)Cc5c(O)c6c(c(O)c54)C(=O)c4c(OC)cccc4C6=O)CC32)c([N+](=O)[O-])cc1OCC(=O)NC1C(O)OC(CO)C(O)C1O` (centres unmarked) [Glucose-Phtodoxazolidine], the IC50 in experiment [3] (Homo sapiens, MDA-MB-231) was 832 nM; in experiment [3] (Homo sapiens, MDA-MB-231, 24 h) it was 2080 nM.

Regarding `COc1cc(C(C)OC(=O)N2CO[C@@H]3[C@H](C)OC(OC4CC(O)(C(=O)CO)Cc5c(O)c6c(c(O)c54)C(=O)c4c(OC)cccc4C6=O)C[C@@H]32)c([N+](=O)[O-])cc1OCC(=O)NCCOCCOCCOCCn1nnc2c1-c1ccccc1CN(C(=O)CCNC(=O)CCN1C(=O)CC(SCCC(=O)N[C@@H](CCCCN)C(=O)N[C@@H](CCCCN)C(=O)N[C@@H](CCCCN)C(=O)N[C@@H](CCCCN)C(=O)N[C@@H](CCCCN)C(=O)N[C@@H](CCCNC(=N)N)C(=O)N[C@@H](Cc3ccccc3)C(=O)N[C@@H](CO)C(=O)N[C@@H](Cc3ccccc3)C(=O)N[C@@H](CCCCN)C(=O)N[C@@H](CCCCN)C(=O)N[C@@H](CO)C(=O)N[C@@H](Cc3ccccc3)C(=O)N[C@@H](CCCCN)C(=O)N[C@@H](CC(C)C)C(=O)N[C@@H](CO)C(=O)NCC(=O)N[C@@H](Cc3ccccc3)C(=O)N[C@@H](CO)C(=O)N[C@@H](Cc3ccccc3)C(=O)N[C@@H](CCCCN)C(=O)N[C@@H](CCCCN)C(=O)N[C@@H](CC(N)=O)C(=O)N[C@@H](CCCCN)C(=O)N[C@@H](CCCCN)C(N)=O)C1=O)c1ccccc1-2` (some centres unmarked) [MARCKS-PEG-Photodoxazolidine] ([Mpa](X1)KKKKKRFSFKKSFKLSGFSFKKNKK-NH2), in experiment [3] (light −, 24 h incubation, read-out: IC50), the IC50 is 1300 nM.
